Consider two compounds from US5834487A, “Inhibition of 26S and 20S proteasome by indanones” (CV Therapeutics, priority 1996, dated 1998).

Some results are limits rather than exact numbers.

One assay has as its system OVCAR cells. Kind of assay: Celltiter 96 Aqueous cell proliferation assay, OVCAR. Particulars: 18 hours with compound. Type of assay: cell-based. How it is done: (§1) Compounds prepared according to the method of Example 1 were assayed against several different cell lines. Cell monolayers were cultured in the presence of test compound for 18 hours to access their ability to inhibit cell proliferation. Cell proliferation was determined colorimetrically using the Celltiter 96 Aqueous non-radioactive cell proliferation assay (Promega) where cell proliferation is directly proportional to absorbance at 490 nm. Results are quoted as the IC50 in μg/ml for inhibition of cell proliferation in various cell types.

Assay [1] concerns the target T1, 20S catalytic subunit of the proteasome (multicatalytic proteinase complex) (Bos taurus, UniProt Q32KL2).
T1 construct: was purified to homogeneity from bovine brain according to published methods; from tissue; host or cells: bovine brain
Kind of assay: 20S proteasome chymotryptic activity, fluorogenic peptide cleavage. Particulars: 50 μM succinyl-leu-leu-val-tyr-7-amino-4-methyl coumarin, 15 minutes at 37° C, pH7.5. It is filed as biochemical, bovine. In a few lines:
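Purified bovine-brain 20S proteasome (2 μg) with 0.1-100 μg/ml inhibitor in 50 mM HEPES, 0.1% SDS, pH 7.5. Reaction started with 50 μM Suc-LLVY-AMC, 15 min at 37° C, stopped with pH 4.0 acetate; liberated AMC read by fluorescence (ex 370, em 430 nm).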

A further assay has as its system Panc-I cells. Kind of assay: Celltiter 96 Aqueous cell proliferation assay, Panc-I. Type of assay: cell-based. Particulars: 18 hours with compound. As for the experimental part: as §1
Another assay relates to IκB degradation. Kind of assay: Inhibition of LPS-induced IκB degradation, Western blot of RAW cell lysates. It is filed as cell-based. Particulars: 1 hour pretreatment, LPS 100 ng/ml 1 hour, anti-IκBα Western blot (FIG. 1). From the text: (§2) This Example examines the ability of compound 173 and particularly compound 187 described in Tables 1 & 2 above to inhibit proteasome activity as indicated, in part, by the presence of IκB and/or p105 in inhibited cells. In order for NF-κB to translocate to the nucleus in response to a stimulus such as lipopolysaccharide (LPS) and activate transcription two proteolytic events need to occur, namely degradation of the inhibitory protein IκB and processing of p105 to p50. These proteolytic events serve to unmask the nuclear localization signal of NF-κB.
RAW cells were pretreated with different concentrations of test compound for 1 hour prior to the administration of lipopolysaccharide (100 ng/ml). Whole cell lysates were harvested after 1 hour, 10 μg, protein was separated by SDS-PAGE, transferred to nitrocellulose and assayed for immunoreactivity with anti-IκBa antibody. Western blots, (See FIG. 1), were visualized using the Boehringer Mannheim Chemiluminescent detection kit.
In general terms: A western blot detects proteins with antibodies after separation by electrophoresis.

The test system of a further assay is RAW cells. As to the kind of experiment: Celltiter 96 Aqueous cell proliferation assay, RAW. It is filed as cell-based. Particulars: 18 hours with compound. How it is done:
as §1

In a further assay the test system is MCF-7 cells. Kind of assay: Celltiter 96 Aqueous cell proliferation assay, MCF-7. Type of assay: cell-based. Particulars: MCF-7, 18 hours with compound. How it is done:
as §1

The test system of another assay is CaCo cells. Kind of assay: Celltiter 96 Aqueous cell proliferation assay, CaCo. It is filed as cell-based. Particulars: 18 hours with compound. As for the experimental part: as §1
Assay [2] deals with LPS induced TNF synthesis. As to the kind of experiment: Inhibition of LPS induced TNF synthesis in RAW cells (ELISA). It is filed as cell-based. Particulars: 1 hour pretreatment, LPS 100 ng/ml, supernatant after 1 hour. As for the experimental part: Compounds prepared according to the method of Example 1 were tested for the inhibition of LPS induced TNF synthesis. RAW cells were pretreated with different concentrations of test compound for 1 hour prior to the administration of lipopolysaccharide (100 ng/mi). Cell culture supernatants were harvested after 1 hour and assayed for TNF concentration by ELISA (Biosource)
Background: ELISA stands for enzyme-linked immunosorbent assay.

The subject of the next assay is p105 to p50 processing. As to the kind of experiment: Inhibition of LPS-induced p105 to p50 processing, Western blot of RAW cell lysates. It is filed as cell-based. Particulars: 1 hour pretreatment, anti-p50 Western blot (FIG. 2).
Text: as §2
Compound 187 as described in Tables 1 & 2 above was used to pretreat RAW cells as described above, and whole cell lysates prepared as described above were analyzed for immunoreactivity toward an anti-p50 antibody. The results, set forth in FIG. 2 indicate that p50 and […] are both present in cells treated with as little as 5 μg/ml of compound 187, while in untreated cells, majority of P 105 has been processed to p50.

The subject of a further assay is NF-κB. As to the kind of experiment: Inhibition of LPS-induced translocation of NF-κB to the nucleus, gel mobility shift assay. Type of assay: cell-based. Particulars: RAW cells, 20 μg/ml for 1 hour, then LPS 100 ng/ml 1 hour (FIG. 3). As for the experimental part: RAW cells were treated for 1 hour with compound 187 (20 μg/ml) and then incubated with lipopolysaccharide (100 ng/ml) for a further one hour. Nuclear fractions were prepared according to standard procedures. Binding reactions for gel mobility shift assays contained 5 μg of nuclear extract protein, 50,000 cpm of ^32 P-labeled NF-κB consensus binding oligonucleotide in the presence and absence of a fifty fold excess of unlabeled oligonucleotide.

A word on the IC50: it is the concentration needed to halve the response being measured. Regarding `COc1ccc2c(c1)C(CC(=O)NC(CC(C)C)C(=O)NC(CC(C)C)C(=O)NCc1ccccc1)CC2=O` (mixture of isomers) [Compound 173], in the assay with OVCAR cells, the “IC50 for inhibition of cell proliferation, OVCAR” value was 8 µg/mL. This compound registered an IC50 in [1] of 0.5 µg/mL. Moreover, in the assay on Panc-I cells, the “IC50 for inhibition of cell proliferation, Panc-I” value was determined as 17 µg/mL. For the same compound, the “concentration at which IκB is present in treated cells” value with IκB degradation is at most 5 µg/mL. In the assay on RAW cells, the “IC50 for inhibition of cell proliferation, RAW” value stood at 20 µg/mL. The “IC50 for inhibition of cell proliferation, MCF-7” value in the assay with MCF-7 cells turned out to be 10 µg/mL. Moreover, in the assay on CaCo cells, the “IC50 for inhibition of cell proliferation, CaCo” value was 17 µg/mL. In [2], the “IC50 inhibition of LPS induced TNF synthesis” value came to 5 µg/mL.
As for `COc1ccc2c(c1)C(CC(=O)NC(CC(C)C)C(=O)NC(CC(C)C)C(=O)NC1CCc3ccccc31)CC2=O` (mixture of isomers) [Compound 187], the “IC50 for inhibition of cell proliferation, OVCAR” value with OVCAR cells turned out to be 5 µg/mL. The “concentration at which p50 and p150 are both present in treated cells” value in the assay with p105 to p50 processing is at most 5 µg/mL. This compound also returned an IC50 in assay [1] of 0.5 µg/mL. Further, the “IC50 for inhibition of cell proliferation, Panc-I” value with Panc-I cells was found to be 7 µg/mL. Moreover, in the assay on IκB degradation, the “concentration at which IκB is present in treated cells” value is at most 5 µg/mL. In the assay with RAW cells, the “IC50 for inhibition of cell proliferation, RAW” value was 10 µg/mL. Besides, the “IC50 for inhibition of cell proliferation, MCF-7” value in the assay with MCF-7 cells worked out at 6 µg/mL. Further, the “IC50 for inhibition of cell proliferation, CaCo” value in the assay on CaCo cells came out at 8 µg/mL. Also, in the assay on NF-κB, the “accumulation of NF-κB in the nucleus of cells” value was “effective in inhibiting the accumulation of NF-κB in the nucleus of cells”. The “IC50 inhibition of LPS induced TNF synthesis” value in [2] was 5 µg/mL.
